What was measured:
Conditions in all cases: 2.5E−05M
α2A (h) = biological target: T1, α2A (h) (Homo sapiens, UniProt P08913); test: Abuse liability binding screen, α2A (h) (antagonist radioligand)
T1 sequence (P08913 1-465): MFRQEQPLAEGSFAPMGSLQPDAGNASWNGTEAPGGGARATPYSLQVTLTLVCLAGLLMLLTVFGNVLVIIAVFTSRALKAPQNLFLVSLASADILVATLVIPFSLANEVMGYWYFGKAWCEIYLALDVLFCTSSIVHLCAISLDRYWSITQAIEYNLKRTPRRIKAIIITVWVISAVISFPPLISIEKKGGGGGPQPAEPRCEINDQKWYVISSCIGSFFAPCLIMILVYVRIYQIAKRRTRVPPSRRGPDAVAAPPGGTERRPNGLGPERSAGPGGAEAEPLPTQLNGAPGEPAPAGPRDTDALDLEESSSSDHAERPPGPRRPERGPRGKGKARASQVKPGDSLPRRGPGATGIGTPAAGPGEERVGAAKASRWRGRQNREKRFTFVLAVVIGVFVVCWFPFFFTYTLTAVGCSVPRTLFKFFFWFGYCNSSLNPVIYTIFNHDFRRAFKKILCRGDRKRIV
Description: (§1) […]. The abuse liability screen included 44 targets (receptors, transporters, on gated-channel systems) related to the dopamine, norepinephrine, serotonin, gamma-aminobutyric acid (GABA), acetylcholine, N-methyl-D-aspartate (NMDA) cannabinoid and opioid neurotransmitter systems as recommended in FDA Draft guidance on Assessment of Abuse Potential of Drugs, January 2010.
(§2) Compound binding was calculated as a % inhibition of the binding of a radioactively labeled ligand specific for each target.
(§3) Results showing an inhibition or stimulation higher than 50% are considered to represent significant effects of the test compounds.

α2C (h) = biological target: T2, α2C (h) (Homo sapiens, UniProt P18825); test: Abuse liability binding screen, α2C (h) (antagonist radioligand)
T2 sequence (P18825 1-462): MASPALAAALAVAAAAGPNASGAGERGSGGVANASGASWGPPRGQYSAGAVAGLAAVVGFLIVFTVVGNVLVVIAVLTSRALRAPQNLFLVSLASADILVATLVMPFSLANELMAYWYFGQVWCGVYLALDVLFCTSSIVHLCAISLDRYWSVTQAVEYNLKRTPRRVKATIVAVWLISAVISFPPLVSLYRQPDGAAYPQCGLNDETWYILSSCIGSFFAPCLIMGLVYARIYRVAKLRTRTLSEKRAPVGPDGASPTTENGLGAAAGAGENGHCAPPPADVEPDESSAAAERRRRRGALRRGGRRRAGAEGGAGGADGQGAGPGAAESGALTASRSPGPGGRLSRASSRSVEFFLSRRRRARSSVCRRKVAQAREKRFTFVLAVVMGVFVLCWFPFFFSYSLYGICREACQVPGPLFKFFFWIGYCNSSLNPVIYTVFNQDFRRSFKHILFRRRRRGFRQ
Description: as §1, §2, §3

δ2 (DOP) (h) = δ2 (DOP) (h) (Homo sapiens, UniProt P41143); test: Binding screen and IC50 determination, δ2 (DOP) (h) (agonist radioligand)
Description: as §2

BZD (central) = test: Abuse liability binding screen, BZD (central) (agonist radioligand)
Description: as §2

5-HT1A (h) = biological target: T3, 5-HT1A (h) (Homo sapiens, UniProt P08908); test: Abuse liability binding screen, 5-HT1A (h) (agonist radioligand)
T3 sequence (P08908 1-422): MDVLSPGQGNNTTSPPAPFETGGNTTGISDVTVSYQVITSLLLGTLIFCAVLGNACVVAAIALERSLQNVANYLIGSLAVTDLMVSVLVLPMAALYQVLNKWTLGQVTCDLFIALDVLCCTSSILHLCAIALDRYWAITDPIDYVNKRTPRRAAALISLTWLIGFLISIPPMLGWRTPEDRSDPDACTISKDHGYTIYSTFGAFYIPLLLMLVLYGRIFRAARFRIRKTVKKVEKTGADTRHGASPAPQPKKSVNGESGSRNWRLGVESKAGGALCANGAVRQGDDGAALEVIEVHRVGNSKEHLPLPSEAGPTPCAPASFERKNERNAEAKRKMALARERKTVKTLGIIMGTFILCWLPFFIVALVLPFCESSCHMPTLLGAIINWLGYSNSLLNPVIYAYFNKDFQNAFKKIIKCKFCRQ
Description: as §2

Na^+ channel (site 2) = test: Abuse liability binding screen, Na+ channel (site 2) (antagonist radioligand)
Description: as §2

GABAA1 (h) (α1, β2, γ2) = GABAA1 (h) (α1, β2, γ2) (Homo sapiens, UniProt P14867+P18507+P47870); test: Abuse liability binding screen, GABAA1 (h) (α1, β2, γ2) (antagonist radioligand)
Description: as §1, §2, §3

α1A (h) = biological target: T4, α1A (h) (Homo sapiens, UniProt P35348); test: Abuse liability binding screen, α1A (h) (antagonist radioligand)
T4 sequence (P35348 1-466): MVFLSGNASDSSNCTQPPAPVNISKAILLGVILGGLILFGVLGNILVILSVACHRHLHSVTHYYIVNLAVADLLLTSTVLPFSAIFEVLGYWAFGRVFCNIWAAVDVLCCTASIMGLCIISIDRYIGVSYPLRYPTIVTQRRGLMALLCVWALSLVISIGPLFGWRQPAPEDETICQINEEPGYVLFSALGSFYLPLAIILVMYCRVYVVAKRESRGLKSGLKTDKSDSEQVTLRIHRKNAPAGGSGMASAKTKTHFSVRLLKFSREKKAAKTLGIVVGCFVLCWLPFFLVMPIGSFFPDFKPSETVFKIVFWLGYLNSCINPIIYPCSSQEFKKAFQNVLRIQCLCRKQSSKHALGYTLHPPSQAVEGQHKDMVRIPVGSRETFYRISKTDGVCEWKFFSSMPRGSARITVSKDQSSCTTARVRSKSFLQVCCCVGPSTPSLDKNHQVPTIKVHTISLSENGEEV
Description: as §1, §2, §3

CB2 (h) = CB2 (h) (Homo sapiens, UniProt P34972); test: Abuse liability binding screen, CB2 (h) (agonist radioligand)
Description: as §1, §2, §3

Ca^2+ channel (N) = Ca^2+ channel (N) (Rattus norvegicus, UniProt Q02294); test: Abuse liability binding screen, Ca2+ channel (N) (antagonist radioligand)
Description: as §2

[1] = system: Cl^− channel (GABA-gated); test: Abuse liability binding screen, Cl− channel (GABA-gated) (antagonist radioligand)
Description: as §2

B2 (h) = B2 (h) (Homo sapiens, UniProt P07550); test: Abuse liability binding screen, B2 (h) (agonist radioligand)
Description: as §1, §2, §3

Sequence of Ca^2+ channel (N) (Q02294 whole entry): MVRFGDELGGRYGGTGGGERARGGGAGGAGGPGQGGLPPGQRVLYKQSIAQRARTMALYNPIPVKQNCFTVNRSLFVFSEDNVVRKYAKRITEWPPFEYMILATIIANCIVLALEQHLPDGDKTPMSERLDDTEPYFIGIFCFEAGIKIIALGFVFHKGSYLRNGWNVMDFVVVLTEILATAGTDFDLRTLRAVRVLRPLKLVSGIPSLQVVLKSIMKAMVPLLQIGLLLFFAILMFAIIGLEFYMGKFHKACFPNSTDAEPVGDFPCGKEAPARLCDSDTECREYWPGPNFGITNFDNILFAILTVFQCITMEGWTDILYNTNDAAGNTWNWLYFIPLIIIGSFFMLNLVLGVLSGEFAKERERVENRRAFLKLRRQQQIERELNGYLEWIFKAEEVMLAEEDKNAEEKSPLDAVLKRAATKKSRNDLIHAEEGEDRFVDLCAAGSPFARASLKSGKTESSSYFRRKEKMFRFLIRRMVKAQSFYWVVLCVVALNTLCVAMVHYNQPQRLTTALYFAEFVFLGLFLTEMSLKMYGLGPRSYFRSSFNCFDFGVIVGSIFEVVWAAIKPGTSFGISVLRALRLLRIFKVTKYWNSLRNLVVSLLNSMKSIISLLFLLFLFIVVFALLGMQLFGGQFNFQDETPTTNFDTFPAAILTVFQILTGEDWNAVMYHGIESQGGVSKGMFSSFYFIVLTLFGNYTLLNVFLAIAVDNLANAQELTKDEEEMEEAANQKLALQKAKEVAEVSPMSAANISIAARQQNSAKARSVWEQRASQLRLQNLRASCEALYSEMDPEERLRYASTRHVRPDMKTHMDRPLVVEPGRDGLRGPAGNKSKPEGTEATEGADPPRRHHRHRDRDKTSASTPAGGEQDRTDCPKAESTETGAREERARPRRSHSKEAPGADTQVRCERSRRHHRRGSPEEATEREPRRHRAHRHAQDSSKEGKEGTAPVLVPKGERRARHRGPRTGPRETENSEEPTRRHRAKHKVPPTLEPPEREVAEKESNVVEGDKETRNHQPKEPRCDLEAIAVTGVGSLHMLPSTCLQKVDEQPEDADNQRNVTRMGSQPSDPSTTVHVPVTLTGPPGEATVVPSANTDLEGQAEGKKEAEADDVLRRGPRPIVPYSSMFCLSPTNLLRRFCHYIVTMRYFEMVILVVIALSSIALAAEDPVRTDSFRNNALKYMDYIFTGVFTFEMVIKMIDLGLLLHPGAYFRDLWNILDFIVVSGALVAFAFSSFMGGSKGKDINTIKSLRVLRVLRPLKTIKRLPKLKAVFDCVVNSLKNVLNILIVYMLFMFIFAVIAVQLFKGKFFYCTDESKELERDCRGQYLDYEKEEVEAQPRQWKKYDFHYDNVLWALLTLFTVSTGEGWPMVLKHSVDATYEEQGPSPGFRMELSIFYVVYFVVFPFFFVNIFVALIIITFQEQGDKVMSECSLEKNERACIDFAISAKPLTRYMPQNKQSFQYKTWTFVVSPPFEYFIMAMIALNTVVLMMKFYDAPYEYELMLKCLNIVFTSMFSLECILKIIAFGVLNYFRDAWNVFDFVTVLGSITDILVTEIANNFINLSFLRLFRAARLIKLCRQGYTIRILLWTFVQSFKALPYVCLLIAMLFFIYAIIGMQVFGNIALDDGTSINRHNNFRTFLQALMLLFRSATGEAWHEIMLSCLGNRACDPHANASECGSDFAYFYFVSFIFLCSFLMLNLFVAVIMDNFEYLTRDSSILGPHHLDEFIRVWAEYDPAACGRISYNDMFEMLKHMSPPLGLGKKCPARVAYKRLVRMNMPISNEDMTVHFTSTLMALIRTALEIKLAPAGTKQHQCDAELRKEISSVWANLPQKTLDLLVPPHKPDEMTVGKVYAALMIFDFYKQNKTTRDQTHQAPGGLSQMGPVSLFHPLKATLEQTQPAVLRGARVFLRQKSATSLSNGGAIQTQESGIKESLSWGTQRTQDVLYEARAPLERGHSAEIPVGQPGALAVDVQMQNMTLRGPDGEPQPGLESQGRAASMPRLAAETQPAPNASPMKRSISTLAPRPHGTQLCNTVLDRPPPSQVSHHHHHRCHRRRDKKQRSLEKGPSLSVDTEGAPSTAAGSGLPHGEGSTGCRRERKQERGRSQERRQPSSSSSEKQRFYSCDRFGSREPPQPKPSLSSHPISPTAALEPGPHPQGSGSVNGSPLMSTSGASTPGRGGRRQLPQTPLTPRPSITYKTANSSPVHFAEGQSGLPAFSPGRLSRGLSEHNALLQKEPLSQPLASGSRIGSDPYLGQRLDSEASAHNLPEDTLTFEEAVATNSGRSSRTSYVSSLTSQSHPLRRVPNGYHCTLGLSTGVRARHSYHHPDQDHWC
Sequence of B2 (h) (P07550 whole entry): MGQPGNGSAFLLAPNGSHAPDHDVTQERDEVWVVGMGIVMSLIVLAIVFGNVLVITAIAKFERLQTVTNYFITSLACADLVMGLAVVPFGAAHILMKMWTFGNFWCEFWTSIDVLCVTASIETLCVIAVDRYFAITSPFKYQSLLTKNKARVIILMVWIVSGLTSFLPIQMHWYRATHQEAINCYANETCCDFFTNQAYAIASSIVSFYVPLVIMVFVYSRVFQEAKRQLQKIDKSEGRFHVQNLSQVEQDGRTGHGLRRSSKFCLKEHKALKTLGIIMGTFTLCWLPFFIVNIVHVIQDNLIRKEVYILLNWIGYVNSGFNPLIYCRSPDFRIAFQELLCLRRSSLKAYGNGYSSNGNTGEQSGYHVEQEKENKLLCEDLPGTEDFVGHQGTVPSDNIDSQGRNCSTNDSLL
Sequence of CB2 (h) (P34972 whole entry): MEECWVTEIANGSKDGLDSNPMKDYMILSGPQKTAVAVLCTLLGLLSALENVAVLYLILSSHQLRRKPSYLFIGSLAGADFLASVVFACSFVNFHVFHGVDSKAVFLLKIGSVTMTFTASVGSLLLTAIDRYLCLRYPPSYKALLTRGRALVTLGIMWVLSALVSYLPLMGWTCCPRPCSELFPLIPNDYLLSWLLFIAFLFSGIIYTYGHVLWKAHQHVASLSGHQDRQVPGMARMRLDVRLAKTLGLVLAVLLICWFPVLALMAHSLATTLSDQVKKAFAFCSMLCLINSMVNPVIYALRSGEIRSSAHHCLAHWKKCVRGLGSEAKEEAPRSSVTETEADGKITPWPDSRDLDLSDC
Sequence of GABAA1 (h) (α1, β2, γ2) (P14867 28-456): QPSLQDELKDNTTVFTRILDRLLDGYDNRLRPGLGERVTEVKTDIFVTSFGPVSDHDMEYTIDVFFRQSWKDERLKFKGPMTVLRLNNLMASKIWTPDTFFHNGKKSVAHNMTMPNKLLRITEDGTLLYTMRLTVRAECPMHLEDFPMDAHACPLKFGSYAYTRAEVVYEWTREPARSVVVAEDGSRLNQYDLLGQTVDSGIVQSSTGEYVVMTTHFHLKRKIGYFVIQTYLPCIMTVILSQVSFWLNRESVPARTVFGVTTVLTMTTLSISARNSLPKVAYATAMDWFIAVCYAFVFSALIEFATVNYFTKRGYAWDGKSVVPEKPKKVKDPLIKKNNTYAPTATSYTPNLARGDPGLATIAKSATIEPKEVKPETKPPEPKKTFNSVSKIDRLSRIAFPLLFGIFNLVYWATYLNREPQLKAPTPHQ
Sequence of GABAA1 (h) (α1, β2, γ2) (P47870 25-512 limits assumed): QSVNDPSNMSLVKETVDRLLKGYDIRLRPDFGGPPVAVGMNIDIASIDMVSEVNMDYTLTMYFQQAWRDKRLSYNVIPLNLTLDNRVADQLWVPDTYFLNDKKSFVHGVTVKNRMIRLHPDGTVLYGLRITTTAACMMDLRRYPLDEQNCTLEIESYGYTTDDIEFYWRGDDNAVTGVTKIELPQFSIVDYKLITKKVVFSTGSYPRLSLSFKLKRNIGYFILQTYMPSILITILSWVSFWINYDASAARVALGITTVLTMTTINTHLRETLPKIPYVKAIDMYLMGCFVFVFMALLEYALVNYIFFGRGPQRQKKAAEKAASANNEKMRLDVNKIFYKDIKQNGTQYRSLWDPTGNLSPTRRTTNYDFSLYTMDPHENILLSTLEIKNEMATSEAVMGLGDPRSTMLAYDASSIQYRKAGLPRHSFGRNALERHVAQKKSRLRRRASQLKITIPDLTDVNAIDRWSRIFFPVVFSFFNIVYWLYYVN
Sequence of GABAA1 (h) (α1, β2, γ2) (P18507 40-475): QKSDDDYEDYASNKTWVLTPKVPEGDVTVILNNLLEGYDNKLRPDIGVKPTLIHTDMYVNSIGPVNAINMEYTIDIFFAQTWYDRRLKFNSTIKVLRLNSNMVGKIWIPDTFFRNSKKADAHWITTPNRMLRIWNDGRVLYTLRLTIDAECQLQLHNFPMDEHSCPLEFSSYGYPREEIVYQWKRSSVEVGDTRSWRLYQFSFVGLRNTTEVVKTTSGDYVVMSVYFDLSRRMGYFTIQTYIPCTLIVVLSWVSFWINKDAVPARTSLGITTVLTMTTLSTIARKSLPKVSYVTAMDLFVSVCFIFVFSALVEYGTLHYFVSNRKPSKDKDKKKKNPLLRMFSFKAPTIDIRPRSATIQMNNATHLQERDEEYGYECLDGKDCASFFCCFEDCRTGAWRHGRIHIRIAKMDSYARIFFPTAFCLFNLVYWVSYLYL
Sequence of δ2 (DOP) (h) (P41143 whole entry): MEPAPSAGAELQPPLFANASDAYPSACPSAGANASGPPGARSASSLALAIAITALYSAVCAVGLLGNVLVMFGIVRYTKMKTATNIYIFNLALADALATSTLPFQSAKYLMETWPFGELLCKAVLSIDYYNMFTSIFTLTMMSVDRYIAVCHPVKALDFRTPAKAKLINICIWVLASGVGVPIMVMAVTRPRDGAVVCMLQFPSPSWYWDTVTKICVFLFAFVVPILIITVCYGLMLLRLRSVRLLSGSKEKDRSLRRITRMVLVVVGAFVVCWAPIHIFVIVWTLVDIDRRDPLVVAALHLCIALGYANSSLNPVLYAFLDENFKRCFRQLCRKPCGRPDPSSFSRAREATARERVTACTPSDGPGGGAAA

## O=C(O)[C@H]1O[C@@H](Oc2ccc3c4c2O[C@H]2[C@@H](O)CC[C@@]5(O)[C@@H](C3)N(CC3CCC3)CC[C@]425)[C@H](O)[C@@H](O)[C@@H]1O [Compound M5, nalbuphine-3-beta-D-glucuronid]
α2A (h)
  % Inhibition of Control Specific Binding 1st: −0.5%
  % Inhibition of Control Specific Binding 2nd: −5.7%
  % Inhibition of Control Specific Binding Mean: −3.1%
α2C (h)
  % Inhibition of Control Specific Binding 1st: 12.1%
  % Inhibition of Control Specific Binding 2nd: 6.5%
  % Inhibition of Control Specific Binding Mean: 9.3%
δ2 (DOP) (h)
  % Inhibition of Control Specific Binding 1st: 13.9%
  % Inhibition of Control Specific Binding 2nd: 18.2%
BZD (central)
  % Inhibition of Control Specific Binding 1st: −13.2%
  % Inhibition of Control Specific Binding Mean: −5.6%
5-HT1A (h)
  % Inhibition of Control Specific Binding 1st: −7.0%
  % Inhibition of Control Specific Binding 2nd: 3.4%
  % Inhibition of Control Specific Binding Mean: −1.8%
Na^+ channel (site 2)
  % Inhibition of Control Specific Binding 1st: −2.1%
  % Inhibition of Control Specific Binding 2nd: 24.8%
  % Inhibition of Control Specific Binding Mean: 11.4%
GABAA1 (h) (α1, β2, γ2)
  % Inhibition of Control Specific Binding 1st: −1.4%
  % Inhibition of Control Specific Binding 2nd: −0.8%
  % Inhibition of Control Specific Binding Mean: −1.1%
α1A (h)
  % Inhibition of Control Specific Binding 1st: −0.1%
  % Inhibition of Control Specific Binding 2nd: 3.4%
  % Inhibition of Control Specific Binding Mean: 1.6%
CB2 (h)
  % Inhibition of Control Specific Binding 1st: −13.1%
  % Inhibition of Control Specific Binding 2nd: −23.1%
  % Inhibition of Control Specific Binding Mean: −18.1%
Ca^2+ channel (N)
  % Inhibition of Control Specific Binding 1st: −10.9%
  % Inhibition of Control Specific Binding 2nd: 2.5%
  % Inhibition of Control Specific Binding Mean: −4.2%
[1]
  % Inhibition of Control Specific Binding 1st: 3.3%
  % Inhibition of Control Specific Binding 2nd: −7.4%
  % Inhibition of Control Specific Binding Mean: −2.1%
B2 (h)
  % Inhibition of Control Specific Binding 1st: −4.6%
  % Inhibition of Control Specific Binding 2nd: 15.3%
  % Inhibition of Control Specific Binding Mean: 5.4%

— US9624233B2, “Compounds for treating pruritic conditions” (priority 2015, dated 2017)
